We go through 50 compounds from patent publication US20220380378A1 (ESSA Pharma, Inc., priority 2021, published 2022).

Molecules are shown by their SMILES.

In the test the target is T1, androgen receptor (AR) (Homo sapiens, UniProt P10275, T878A).
T1 sequence (P10275 1-920 T878A): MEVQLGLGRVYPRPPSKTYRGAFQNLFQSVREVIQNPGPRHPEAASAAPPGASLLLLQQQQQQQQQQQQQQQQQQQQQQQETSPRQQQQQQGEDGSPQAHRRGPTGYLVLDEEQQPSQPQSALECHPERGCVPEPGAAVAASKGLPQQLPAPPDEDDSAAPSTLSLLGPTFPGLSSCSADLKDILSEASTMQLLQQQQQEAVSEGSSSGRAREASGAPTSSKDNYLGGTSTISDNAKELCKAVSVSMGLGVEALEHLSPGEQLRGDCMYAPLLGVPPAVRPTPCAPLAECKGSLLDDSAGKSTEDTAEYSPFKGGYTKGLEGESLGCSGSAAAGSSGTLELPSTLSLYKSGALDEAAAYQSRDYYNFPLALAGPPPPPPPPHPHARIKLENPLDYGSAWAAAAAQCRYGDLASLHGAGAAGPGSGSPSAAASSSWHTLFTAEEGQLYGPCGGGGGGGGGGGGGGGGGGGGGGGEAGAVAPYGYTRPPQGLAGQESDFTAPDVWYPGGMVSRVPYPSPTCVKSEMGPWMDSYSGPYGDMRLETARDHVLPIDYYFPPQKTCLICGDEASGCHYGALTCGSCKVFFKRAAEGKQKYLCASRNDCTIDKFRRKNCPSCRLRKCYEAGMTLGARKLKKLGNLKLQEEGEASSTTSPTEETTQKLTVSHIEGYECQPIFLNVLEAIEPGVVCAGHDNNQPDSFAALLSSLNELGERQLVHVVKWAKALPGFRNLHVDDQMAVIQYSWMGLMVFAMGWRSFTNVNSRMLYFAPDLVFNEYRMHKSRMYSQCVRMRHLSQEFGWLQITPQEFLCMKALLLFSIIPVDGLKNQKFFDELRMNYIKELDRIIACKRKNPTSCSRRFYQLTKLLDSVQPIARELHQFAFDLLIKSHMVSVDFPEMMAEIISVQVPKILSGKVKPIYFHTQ
Description: Androgen-induced PSA (6.1 kb)-luciferase reporter assay in LNCaP cells (R1881 1 nM). The class given is cell-based. Also on record: endogenous in cells; host or cells: LNCaP. Particulars: 24 h, read-out: PSA-Luc IC50 Range. A digest of the protocol:
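LNCaP cells transiently transfected with PSA (6.1 kb)-luciferase for 24 h, pretreated 1 h with compound or DMSO, then stimulated with 1 nM R1881 for 24 h. Firefly luciferase in lysates normalized to protein content; IC50 relative to R1881-induced vehicle activity.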
(Reporter assays use an easily measured gene product as a stand-in for the process of interest.)
In general, IC50 refers to the midpoint of a concentration-inhibition curve. For the compound `N#Cc1cc(-n2ccc3cc(OCc4coc(S(N)(=O)=O)c4)ccc32)cc(Cl)c1OCCCl` [Compound A20], the IC50 fell in the range of 500 to 2000 nM.

As for `CS(=O)(=O)N1CCCC(COc2ccc3c(ccn3-c3cc(Cl)c(OCCCl)c(C#N)c3)c2)C1` (centres unmarked) [Compound A56], the IC50 was 500 to 2000 nM.

Consider `CC(C)(c1ccc(OCc2ccnc(NS(C)(=O)=O)n2)cc1)c1cc(Cl)c(OCCCCl)c(C#N)c1` [Compound A181], for which the IC50 was 500 to 2000 nM.

Take `Cc1cc(-c2ccc3c(ccn3-c3cc(Cl)c(OCCCl)c(C#N)c3)c2)ccc1CNS(C)(=O)=O` [Compound A168]: the IC50 was under 500 nM.

Regarding `CC(=O)Nc1cnc(COc2ccc(C(C)(C)c3cc(Cl)c(OCCCl)c(C#N)c3)cc2)c(NS(C)(=O)=O)n1` [Compound A76], the half-maximal inhibitory concentration (IC50) is under 500 nM.

As for `COc1c(Cl)cc(C2CCc3cc(-c4ccc5nc(NS(C)(=O)=O)cnc5c4)ccc32)cc1C#N` (centres unmarked) [Compound A276], the IC50 is 500 to 2000 nM.

Regarding `CC(C)(c1ccc(-c2ccc3oc(NS(C)(=O)=O)nc3c2)cc1)c1cc(Cl)c(OCCCl)c(C#N)c1` [Compound A255], the IC50 is 500 to 2000 nM.

`CS(=O)(=O)Nc1ncc(COc2ccc3c(ccn3-c3cc(Cl)c(OCCCl)c(C#N)c3)c2)cn1` [Compound A29, N-(5-(((1-(3-chloro-4-(2-chloroethoxy)-5-cyanophenyl)-1H-indol-5-yl)oxy)methyl)pyrimidin-2-yl)methanesulfonamide]: the half-maximal inhibitory concentration (IC50) was in the range of 500 to 2000 nM.

In the case of `CS(=O)(=O)N1CC(CCOc2ccc3c(ccn3-c3cc(Cl)c(OCCCl)c(C#N)c3)c2)C1` [Compound A225], the 50% inhibitory concentration (IC50) was in the range of 500 to 2000 nM.

As for `CC(c1cc(Cl)c(OCCCl)c(C#N)c1)n1ccc(-c2ccc3nc(NS(C)(=O)=O)ncc3c2)n1` (centres unmarked) [Compound A142], the IC50 was over 2000 nM.

For `CS(=O)(=O)Nc1ncc2cc(-c3ccc4c(ccn4-c4cc(Cl)c(OCCCl)c(C#N)c4)c3)ccc2n1` [Compound A122], the IC50 was over 2000 nM.

Consider `CC(C)(c1ccc(OCc2cnc(NS(C)(=O)=O)nc2N2CCCCC2)cc1)c1cc(Cl)c(OCCCl)c(C#N)c1` [Compound A99], for which the IC50 was 500 to 2000 nM.

With `CC1(NS(C)(=O)=O)CCN(Cc2ccc3c(ccn3-c3cc(Cl)c(OCCCl)c(C#N)c3)c2)CC1` [Compound A238], the IC50 was over 2000 nM.

Consider `CS(=O)(=O)Nc1ccn(CCc2ccc3c(ccn3-c3cc(Cl)c(OCCCl)c(C#N)c3)c2)c(=O)c1` [Compound A81], for which the IC50 was over 2000 nM.

`CS(=O)(=O)Nc1nccc(COc2ccc3c(cnn3-c3cc(Cl)c(OCCCl)c(C#N)c3)c2)n1` [Compound A60]: the IC50 was over 2000 nM.

`CC(C)(c1ccc(-c2ccc3oc(NS(C)(=O)=O)nc3n2)cc1)c1cc(Cl)c(OCCCl)c(C#N)c1` [Compound A281]: the IC50 is over 2000 nM.

For the compound `CS(=O)(=O)N1CCO[C@@H](COc2ccc3c(ccn3-c3cc(Cl)c(OCCCl)c(C#N)c3)c2)C1` [Compound A205], the IC50 is over 2000 nM.

Turning to `CS(=O)(=O)N1CCCC1COc1ccc2c(ccn2-c2cc(Cl)c(OCCCl)c(C#N)c2)c1` (centres unmarked) [Compound A201], the IC50 is over 2000 nM.

Turning to `CS(=O)(=O)N1CCC12CN(CCc1ccc3c(ccn3-c3cc(Cl)c(OCCCl)c(C#N)c3)c1)C2` [Compound A249], the half-maximal inhibitory concentration (IC50) was over 2000 nM.

`CS(=O)(=O)N1CCC(COc2ccc3c(ccn3-c3cc(Cl)c(OCCCl)c(C#N)c3)c2)C1` (centres unmarked) [Compound A210]: the half-maximal inhibitory concentration (IC50) lay within 500 to 2000 nM.

In the case of `CC(C)(c1ccc(OCc2ccnc(NS(C)(=O)=O)n2)cc1)c1cc(F)c(N2CC(O)C2)c(C#N)c1` [Compound A259], the IC50 is under 500 nM.

Turning to `CC(C)(c1ccc(OCc2ccnc(NS(C)(=O)=O)n2)cc1)c1cnc(N2CC3(CCC3)C2)c(Cl)c1` [Compound A106], the IC50 is over 2000 nM.

In the case of `CC(C)(c1ccc(OCc2ccnc(NS(C)(=O)=O)n2)cc1)c1cc(Cl)c(N2CC3(CCC3)C2)c(C#N)c1` [Compound A267], the IC50 is 500 to 2000 nM.

As for `CS(=O)(=O)N[C@H]1CC[C@H](COc2ccc3c(ccn3-c3cc(Cl)c(OCCCl)c(C#N)c3)c2)CC1` [Compound A58], the IC50 was over 2000 nM.

For `COc1c(Cl)cc(C(C)(C)c2ccc(OCC34CC(NS(C)(=O)=O)(C3)C4)cc2)cc1C#N` [Compound A268], the IC50 lay within 500 to 2000 nM.

Regarding `CS(=O)(=O)Nc1nccc(COc2ccc(-n3ccc4c(Cl)c(OCCCl)c(C#N)cc43)cc2)n1` [Compound A26], the IC50 is over 2000 nM.

With `CC(C)(c1ccc(-c2ccc3cnc(NS(C)(=O)=O)nc3c2)cc1)c1cc(Cl)c(OCCCl)c(C#N)c1` [Compound A121], the IC50 was over 2000 nM.

For the compound `CS(=O)(=O)NC1CCCN(CCc2ccc3c(ccn3-c3cc(Cl)c(OCCCl)c(C#N)c3)c2)C1` (centres unmarked) [Compound A245], the IC50 was over 2000 nM.

Turning to `CC(C)(c1ccc(-c2cnc3nc(NS(C)(=O)=O)ncc3c2)cc1)c1cc(Cl)c(OCCCl)c(C#N)c1` [Compound A192], the IC50 was in the range of 500 to 2000 nM.

For the compound `CC(C)(c1ccc(-c2cc3cnc(NS(C)(=O)=O)nn3c2)cc1)c1cc(Cl)c(OCCCl)c(C#N)c1` [Compound A263], the IC50 is over 2000 nM.

For `CS(=O)(=O)N1CC2(CN(Cc3ccc4c(ccn4-c4cc(Cl)c(OCCCl)c(C#N)c4)c3)C2)C1` [Compound A241, 3-chloro-2-(2-chloroethoxy)-5-(5-((6-(methylsulfonyl)-2,6-diazaspiro[3.3]heptan-2-yl)methyl)-1H-indol-1-yl)benzonitrile], the half-inhibitory concentration (IC50) was over 2000 nM.

Take `CS(=O)(=O)NC12CC(C(=O)Nc3ccc4c(ccn4-c4cc(Cl)c(OCCCl)c(C#N)c4)c3)(C1)C2` [Compound A133]: the IC50 is over 2000 nM.

With `CS(=O)(=O)Nc1ncc(Cn2cc3c(-c4cc(Cl)c(OCCCl)c(C#N)c4)cccc3n2)cn1` [Compound A161], the IC50 was over 2000 nM.

Consider `CC(C)(c1ccc(OCc2ncc(NS(C)(=O)=O)nc2N)cc1)c1cc(Cl)c(OCCCl)c(C#N)c1` [Compound A43], for which the IC50 was under 500 nM.

On to `CS(=O)(=O)Nc1nccc(COc2ccc3c(ccn3-c3cc(Cl)c(OCC4COC4)c(C#N)c3)c2)n1` [Compound A73], for which the IC50 is over 2000 nM.

`CC(C)(c1ccc(OCc2ccnc(NS(C)(=O)=O)n2)cc1)c1cc(Cl)c(-c2ccc(Cl)cc2)c(C#N)c1` [Compound A2, N-(4-((4-(2-(2,4′-dichloro-6-cyano-[1,1′-biphenyl]-4-yl)propan-2-yl)phenoxy)methyl)pyrimidin-2-yl)methanesulfonamide]: the half-inhibitory concentration (IC50) was over 2000 nM.

Consider `CC(C)(c1ccc(OCc2ccnc(NS(C)(=O)=O)n2)cc1)c1cc(F)c(N2CCCCC2)c(C#N)c1` [Compound A261], for which the IC50 was 500 to 2000 nM.

As for `CS(=O)(=O)Nc1ncc(Cn2ncc3ccc(-c4cc(Cl)c(OCCCl)c(C#N)c4)cc32)cn1` [Compound A143], the IC50 was over 2000 nM.

Regarding `CS(=O)(=O)NC12CC(NC(=O)c3ccc4c(ccn4-c4cc(Cl)c(OCCCl)c(C#N)c4)c3)(C1)C2` [Compound A134], the IC50 is over 2000 nM.

With `CS(=O)(=O)N[C@H]1C[C@@H](COc2ccc3c(ccn3-c3cc(Cl)c(OCCCl)c(C#N)c3)c2)C1` [Compound A136], the IC50 is 500 to 2000 nM.

In the case of `CS(=O)(=O)NC12CC(COc3ccc4c(c3)CCCC4c3cc(Cl)c(OCCCl)c(C#N)c3)(C1)C2` (centres unmarked) [Compound A247], the IC50 is over 2000 nM.

In the case of `CS(=O)(=O)Nc1nccc(COc2ccc3c(ccn3-c3ccn(CCCCl)c(=O)c3)c2)n1` [Compound A115], the half-maximal inhibitory concentration (IC50) is over 2000 nM.

Turning to `Cn1nc(NS(C)(=O)=O)cc1COc1ccc(C(C)(C)c2cc(Cl)c(OCCCl)c(C#N)c2)cc1` [Compound A93], the IC50 is 500 to 2000 nM.

In the case of `CS(=O)(=O)Nc1ncc(COc2ccc3c(ccn3-c3cc(Cl)c(OCCCl)c(C#N)c3)c2)c(N)n1` [Compound A10], the IC50 was over 2000 nM.

Turning to `CC(C)(c1ccc(OCc2cnc(NS(C)(=O)=O)nc2N2CCNCC2)cc1)c1cc(Cl)c(OCCCl)c(C#N)c1` [Compound A120], the IC50 is under 500 nM.

On to `CC(C)(c1ccc(-c2cnc3c(c2)OCCN3S(C)(=O)=O)cc1)c1cc(Cl)c(OCCCl)c(C#N)c1` [Compound A229], for which the IC50 lay in the range of 500 to 2000 nM.

For the compound `CC(Oc1ccc2c(ccn2-c2cc(Cl)c(OCCCl)c(C#N)c2)c1)C1CN(S(C)(=O)=O)C1` (centres unmarked) [Compound A159], the IC50 was 500 to 2000 nM.

Consider `CC(NC12CC(NS(C)(=O)=O)(C1)C2)c1ccc2c(ccn2-c2cc(Cl)c(OCCCl)c(C#N)c2)c1` (centres unmarked) [Compound A184], for which the IC50 is over 2000 nM.

As for `CC(C)(c1ccc(-c2ccc3nc(NS(C)(=O)=O)oc3n2)cc1)c1cc(Cl)c(OCCCl)c(C#N)c1` [Compound A282], the IC50 is over 2000 nM.

With `CN(C1CCN(Cc2ccc3c(ccn3-c3cc(Cl)c(OCCCl)c(C#N)c3)c2)CC1)S(C)(=O)=O` [Compound A237], the IC50 was over 2000 nM.
